# Results taken from US5432165A, “Methods for the treatment of infection caused by Hepatitis B virus (HBV)” (priority 1992, dated 1995).
# Entries after “also recorded” stand apart in the source; their conditions may differ.
# Columns and labels:
# [1] = month long TID dosing of FIAC; cited from earlier work
# [2] = Oral FIAU in immune-competent patients with chronic hepatitis B: adverse experiences; format: in vivo, human
# Protocol: Consecutively qualifying patients will be used for each dose group and patients will not be assigned to dose based on either disease severity or expected tolerance. Tolerance will be determined with antiemetic therapy given concomitantly as necessary should a patient experience sustained nausea or two or more episodes of vomiting. Compazine, 10 mg p.o. Q6H or 25 mg p.r. Q12H will be used.
# The side effects that will be monitored will include gastrointestinal irritation, bone marrow suppression, neurologic, and muscular toxicity.
# CMV = details: read-out: in vitro ED90; cited from earlier work
# clinical = assay: clinical
# Protocol: Tolerance to the oral formulation of FIAU was evaluated in relatively healthy HIV-infected patients with Karnofsky performance scores ≥80 and ≥200 CD4 cells/mm^3. Sequential cohorts of ten patients were evaluated in an open and uncontrolled study design. […] Tolerance was determined with concurrent anti-emetic therapy (prochlorperazine or metoclopramide hydrochloride) as necessary for each patient.
# (§1) This study is an open label, uncontrolled trial. […] Tolerated doses could be studied in an additional five patient cohort of chronic hepatitis B patients, who were potentially more at risk of side effects. A month of post-treatment follow-up was provided for the hepatitis cohorts due to the known propensity of this disease to "flare" after therapy.
# Although not formally randomized, qualified patients were to be consecutively enrolled without regard to their disease severity, expected tolerance, or potential benefit of the dose being evaluated. Tolerance to a dose was defined as seven or more of the ten patients in a cohort individually meeting predefined tolerance criteria including successful completion of therapy and limits on changes in particular signs, symptoms and laboratory tests. Tolerance was determined with concurrent anti-emetic therapy for those patients requiring it. Criteria and regimens for such therapy were predefined.
# Weight loss was restricted to less than 10% in the past three months and serum CPK was required to be within the normal range.
# (§2) Patients were evaluated clinically at the screening visit, and on Days 1, 3, 7, 10, and 14. The hepatitis patients were additionally evaluated on Days 21 and 42. The blood chemistry and urinalysis tests were repeated additionally on Days 2 and 5.
# (§3) Clinical evaluations consisted of a physical exam, which included a test of lower extremity muscle strength, medical history, systems review, grading of non-laboratory signs and symptoms of toxicity, and listing of concomitant medications. Additionally, at visits with clinical evaluations after Day 1, any adverse experiences were recorded.
# At the screening visit a chest x-ray, electrocardiogram (ECG), HIV test, T cell profile (CD4 and CD8 counts), serum biochemistry, hematology, urinalysis and stool guaiac tests were obtained in addition to the clinical evaluation. Hematology tests consisted of hemoglobin, hematocrit, RBC, WBC and differential, platelet, reticulocyte count, MCV, MCHC and MCH. Urinalysis tests consisted of color, appearance, pH, specific gravity, bilirubin, protein, glucose, myoglobin, RBCs, WBCs, casts, crystals and bacteria. Serum biochemistry tests consisted of creatinine, uric acid, BUN, total bilirubin, AST, ALT, alkaline phosphatase, LDH, CPK, CPK-MB, glucose, total protein, albumin, globulin, calcium, phosphorus, potassium, sodium, chloride, bicarbonate and aldolase.
# The Baseline visit (Day 1) consisted of repeating the clinical evaluation, hematology, serum biochemistry, urinalysis, and stool guaiac tests, and T cell profile. Additionally at Baseline, archive plasma samples were taken. Plasma samples were taken two hours after each patient's first dose of FIAU (peak) and right before the second dose (trough). Thereafter, on Days 3, 7 and 14 additional peak and trough samples were obtained by taking the trough sample just before a patient took a dose of FIAU and the peak sample two hours later. These samples were analyzed by HPLC for levels of FIAU and FAU as low as 0.05 μg/ml for either compound.
# (§4) The Day 3 safety profile consisted of the clinical evaluation, hematology, serum biochemistry, urinalysis, stool guaiac tests and plasma samples for peak and trough levels of FIAU and its major metabolite FAU. On Day 7 patients underwent clinical evaluation, an ECG, peak and trough serum samples, T cell profile, and hematology, serum biochemistry, urinalysis, and stool guaiac tests. A clinical evaluation, hematology, serum biochemistry, and urinalysis tests were done on Day 10.
# [3] = Safety of oral FIAU in HIV-infected patients with chronic hepatitis B
# Protocol: Cohorts of five HIV-infected patients with chronic hepatitis B were studied at the tolerated doses. Plasma levels of FIAU and its major deiodinated metabolite FAU were determined two hours after dosing (peak levels) and just prior to dosing (trough levels) following the initial dose of FIAU and again on Days 3, 7, and 14 in order to make estimates of pharmacokinetic parameters including accumulation of drug or principal metabolite.
# as §1
# Additionally, all patients had to have completed the screening tests within four weeks of starting therapy, except for diagnostic HSV, VZV or CMV cultures. Those enrolled into the five patient cohorts of chronic hepatitis B patients had the same entry requirements, except that they had to have a history of chronic hepatitis B and be surface antigen positive. Liver function tests (AST, ALT, GGT, and bilirubin) could be Grade 2 or less at study entry for these patients. Patients receiving pentamidine aerosol for prophylaxis of recurrent Pneumocystis pneumonia could continue on this therapy during the study.
# as §2, §3
# as §4, with “10. These were repeated for the Day 14 evaluation with the addition of an ECG, T cell profile, stool guaiac, and peak and trough plasma samples. The post-treatment evaluations of the hepatitis patients on Days 21 and 42 consisted of a clinical evaluation and serum biochemistry tests.” for “10.”
# [4] = 1.0 mg/kg-day, non-hepatitis patients, p>0.07
# [5] = 1.0 mg/kg-day, ten non-hepatitis patients
smiles,measurement,setting,value
"O=c1[nH]c(=O)n([C@@H]2O[C@H](CO)[C@@H](O)[C@@H]2F)cc1I [FIAU, 1-(2'-deoxy-2'-fluoro-β-D-arabinofuranosyl)-5-iodouracil]",accumulation in the plasma,[1],"neither FIAC, FIAU, or their metabolites accumulated in the plasma"
same,days on which mild fatigue was experienced,"[2]; 0.05 mpk, patient 1C",Day 8
same,days on which mild fatigue was experienced,"[2]; 0.1 mpk, individual patients (footnotes a-d: 1A, 2A, 3A, 6A)","Days 3, 8, 14, 21, 28, and Week 5; also recorded: Days 7, 14, and 18"
same,days on which mild nausea was experienced,"[2]; 0.1 mpk, patient 6A","Days 3, 7, 14, and 21"
same,days on which mild fatigue was experienced,"[2]; 0.25 mpk, individual patients (footnotes e, g: 4B, 6B)","Days 14, 21, 28, Week 5, and Month 2"
same,days on which mild nausea was experienced,"[2]; 0.25 mpk, patient 5B",Day 3
same,EC90,CMV,~0.5 µM
same,tolerance of oral FIAU,"clinical; 1.0 mg/kg-day TID 14 days, HIV-infected patients (ten without chronic hepatitis B)",adequately tolerated
same,average AST value at end of therapy,"clinical; 1.0 mg/kg-day, non-hepatitis patients, baseline 23.4, p≤0.02",29.6
same,average ALT value at end of therapy,"clinical; 1.0 mg/kg-day, non-hepatitis patients, baseline 27.1, p≤0.02",42.3
same,average WBC count at end of therapy,"clinical; 1.0 mg/kg-day, non-hepatitis patients, baseline average 5,480, p=0.0746","4,920 cells/mm^3"
same,average loss of CD4 cells,"clinical; 1.0 mg/kg-day, non-hepatitis patients, non-significant",64 cells/mm^3
same,decrease in lymphocytes,clinical; [4],about 300 cells/mm^3
same,decrease in neutrophils,clinical; [4],about 300 cells/mm^3
same,patients requiring anti-emetic therapy,clinical; [5],four required anti-emetic therapy
same,patients with mild to moderate headache,clinical; [5],Five patients complained of mild to moderate headache
same,patients with mild to moderate nausea,clinical; [5],Eight patients experienced mild to moderate nausea
same,tolerance of oral FIAU,"clinical; 1.7 mg/kg-day, three non-hepatitis patients",not tolerated; also recorded: All three discontinued the study after two to eight days due to severe fatigue
same,MTD at 336 h,"clinical; human, in vivo, po, maximum tolerated dose of oral FIAU, HIV-infected population, TID for two weeks",≥ 1 mg/kg/day
same,tolerance compared with 1.0 or 0.5 mg/kg-day,[3]; 0.1 mg/kg-day,much better tolerated
same,incidents of fatigue,"[3]; 0.1 mg/kg-day, four patients",only one incident of fatigue
same,tolerance of oral FIAU,"[3]; 1.0 mg/kg-day TID 14 days, six hepatitis patients",completed the 14 days of therapy with no untoward effects; also recorded: relatively well-tolerated; also recorded: All six patients completed the full course of therapy
same,"increase in AST and ALT values, Patient 406","[3]; 1.0 mg/kg-day, 28 days after completion of therapy",~5 fold
same,myositis,"[3]; 1.0 mg/kg-day, Patient 101, after dosing was completed",severe myositis; also recorded: One patient experienced an episode of myositis
same,average drop in lymphocytes,"[3]; 1.0 mg/kg-day, hepatitis patients",750 cells/mm^3
same,decrease in average CD4 count,"[3]; 1.0 mg/kg-day, hepatitis patients, Baseline to Day 14, p=0.03",40%
same,average CD4 count at Day 14,"[3]; 1.0 mg/kg-day, hepatitis patients, 691 at Baseline",415
same,average WBC at end of therapy,"[3]; 1.0 mg/kg-day, hepatitis patients, baseline average 4,690, p=0.0085","3,430"
same,average drop in neutrophils,"[3]; 1.0 mg/kg-day, hepatitis patients, not significant",approximately 300 cell/mm^3
same,decrease in lymphocytes,"[3]; 1.0 mg/kg-day, hepatitis patients, p=0.00125",39%
same,significance of increases in liver enzymes during therapy,"[3]; 1.0 mg/kg-day, hepatitis patients, p>0.1",increases in liver enzymes were not
same,patients with mild to moderate nausea,"[3]; 1.0 mg/kg-day, six hepatitis patients",Four patients reported mild to moderate nausea
same,"change of AST and ALT values, Patient 401","[3]; 1.0 mg/kg-day, very end of therapy, back below Baseline after a month of follow-up",doubling
same,toxicity overall,"[3]; doses of 0.1 to 1.0 mg/kg-day, HIV-infected patients with chronic hepatitis B",have not produced unacceptable toxicity
same,incidence of fatigue,[3]; the other groups (1.0 and 0.5 mg/kg-day),40-50%
